One test deals with E. coli UB1005 C498. The experiment in a line: MIC microtitre broth dilution, E. coli. The class given is cell-based. To be noted: E. coli UB1005 C498 wt Gram−, 24 h. How it is done:
(§1) MIC assays were conducted essentially as described by Amsterdam, D 1996, “Susceptibility testing of antimicrobials in liquid media”, p. 52-111, in Loman, V, ed. Antibiotics in laboratory medicine, 4th ed Williams and Wilkins, Baltimore, Md.

The subject of test [1] is P. aeruginosa PAE/K799 H187. The experiment in a line: MIC microtitre broth dilution, P. aeruginosa. Format: cell-based. As to conditions: P. aeruginosa PAE/K799 H187 wt Gram−, 24 h. How it is done: as §1
Test [2] relates to K. pneumoniae ATCC13883 C238. The experiment in a line: MIC microtitre broth dilution, K. pneumoniae. To be noted: K. pneumoniae ATCC13883 C238 wt Gram−, 24 h. Format: cell-based. How it is done: as §1
The test system of the next test is S. aureus ATCC25923 C622. Kind of test: MIC microtitre broth dilution, S. aureus. Format: cell-based. As to conditions: S. aureus ATCC25923 C622 wt Gram+, 24 h. How it is done:
as §1

The test system of another test is S. epidermidis C621. Kind of test: MIC microtitre broth dilution, S. epidermidis. The class given is cell-based. As to conditions: S. epidermidis C621 wt Gram+, 24 h. How it is done: as §1
A further test relates to S. pyogenes C721. The experiment in a line: MIC microtitre broth dilution, S. pyogenes. As to conditions: S. pyogenes C721 wt Gram+, Todd Hewitt broth. The class given is cell-based. The method, then: as §1
The subject of test [3] is TNFα production by THP-1 cells. The experiment in a line: TNF-alpha production by macrophages. Format: cell-based, human. To be noted: THP-1 cells stimulated with opsonized zymosan, 24 hours; read-out: IC50 TNFα production. The method, then: (§2) The human macrophage cell line, THP-1 was plated in a 12-well plate such that each well contains 1×10^6 cells in 2 ml of media containing 10% FCS. Opsonized zymosan was prepared by resuspending 20 mg of zymosan A in 2 ml of ddH2O and homogenizing until a uniform suspension was obtained. Homogenized zymosan was pelleted at 250 g and resuspended in 4 ml of human serum for a final concentration of 5 mg/ml and incubated in a 37° C. water bath for 20 minutes to enable opsonization.
THP-1 cells were stimulated to produce TNFα by the addition of 1 mg/ml opsonized zymosan. […] Each drug concentration was tested in triplicate wells. Plates were incubated at 37° C. for 24 hours.
After a 24-hour stimulation, supernatants were collected to quantify TNFα production. TNFα concentrations in the supernatants were determined by ELISA using recombinant human TNFα to obtain a standard curve A 96-well MaxiSorb plate was coated with 100 μL of anti-human TNFα Capture Antibody diluted in Coating Buffer (0.1M sodium carbonate pH 9 5) overnight at 4° C. The dilution of Capture Antibody used was lot-specific and was determined empirically. Capture antibody was then aspirated and the plate washed 3 times with Wash Buffer (PBS, 0.05% TWEEN-20) Plates were blocked for 1 hour at room temperature with 200 μL/well of Assay Diluent (PBS, 10% FCS pH 7.0). After blocking, plates were washed 3 times with Wash Buffer. […] Sample supernatants and standards were assayed in triplicate and were incubated at room temperature for 2 hours after addition to the plate coated with Capture Antibody. The plates were washed 5 times and incubated with 100 μL of Working Detector (biotinylated anti-human TNFα detection antibody+avidin-HRP) for 1 hour at room temperature. Following this incubation, the plates were washed 7 times and 100 μL of Substrate Solution (tetramethylbenzidine, H2O2) was added to plates and incubated for 30 minutes at room temperature. […] Mean absorbance was determined from triplicate data readings and the mean background was subtracted. TNFα concentration values were obtained from the standard curve.

For test [4], the system named is IL-1β production by THP-1 cells. The experiment in a line: IL-1β production by macrophages. Format: cell-based, human. As to conditions: read-out: IC50 IL-1β production.
Test [5] has as its system IL-8 production by THP-1 cells. Kind of test: IL-8 production by macrophages. The class given is cell-based, human. As to conditions: THP-1 cells stimulated with opsonized zymosan, 24 hours, read-out: IC50 IL-8 production. How it is done: as §2, with “12 well” for “12-well”, “g,” for “g and”, “mg/ml,” for “mg/ml”, “opsonization. Geldanamycin was prepared in DMSO at a concentration of 10^−2 M and serially diluted 10-fold to give a range of stock concentrations (10^−8 M to 10^−2 M).” for “opsonization.”
THP-1 cells were stimulated to produce IL-8 by the addition of 1 mg/ml opsonized zymosan. Geldanamycin was added to THP-1 cells by directly adding DMSO stock solutions, prepared earlier, at a 1/1000 dilution, to each well. Each drug concentration was tested in triplicate wells. Plates were incubated at 37° C. for 24 hours.
After a 24-hour stimulation, supernatants were collected to quantify IL-8 production. IL-8 concentrations in the supernatants were determined by ELISA using recombinant human IL-8 to obtain a standard curve. A 96-well MAXISORB plate was coated with 100 μL of anti-human IL-8 Capture Antibody diluted in Coating Buffer (0.1M sodium carbonate pH 9.5) overnight at 4° C. The dilution of Capture Antibody used was lot-specific and was determined empirically. Capture antibody was then aspirated and the plate washed 3 times with Wash Buffer (PBS, 0.05% TWEEN-20). Plates were blocked for 1 hour at room temperature with 200 μL/well of Assay Diluent (PBS, 10% FCS pH 7.0). After blocking, plates were washed 3 times with Wash Buffer. Standards and sample dilutions were prepared as follows: (a) sample supernatants were diluted 1/100 and 1/1000; (b) recombinant human IL-8 was prepared at 200 pg/ml and serially diluted to yield as standard curve of 3.1 pg/ml to 200 pg/ml Sample supernatants and standards were assayed in triplicate and were incubated at room temperature for 2 hours after addition to the plate coated with Capture Antibody The plates were washed 5 times and incubated with 100 μL of Working Detector (biotinylated anti-human IL-8 detection antibody+avidin-HRP) for 1 hour at room temperature. Following this incubation, the plates were washed 7 times and 100 μL of Substrate Solution (Tetramethylbenzidine, H2O2) was added to plates and incubated for 30 minutes at room temperature. Stop Solution (2 NH2SO4) was then added to the wells and a yellow color reaction was read at 450 nm with A correction at 570 nm. Mean absorbance was determined from triplicate data readings and the mean background was subtracted. IL-8 concentration values were obtained from the standard curve. […] The IC50 values for the following additional compounds were determined using this assay: IC50 (nM): 17-AAG, 56; mycophenolic acid, 549; resveratrol, 507; rapamycin, 4; 41; SP600125, 344; halofuginone, 641; D-mannose-6-phosphate, 220; epirubicin hydrochloride, 654; topotemay, 257; mithramycin, 33; daunorubicin, 421; celastrol, 490; chromomycin A3, 36

In test [6] the test system is MCP-1 production by THP-1 cells. The experiment in a line: MCP-1 production by macrophages. Format: cell-based, human. As to conditions: THP-1 cells stimulated with opsonized zymosan, 24 hours, read-out: IC50 MCP-1 production. The method, then: as §2, with “12 well” for “12-well”, “opsonization. Geldanamycin was prepared in DMSO at a concentration of 10^−2 M and serially diluted 10-fold to give a range of stock concentrations (10^−8 M to 10^−2 M).” for “opsonization.”
THP-1 cells were stimulated to produce MCP-1 by the addition of 1 mg/ml opsonized zymosan. […] was added to THP-1 cells by directly adding DMSO stock solutions, prepared earlier, at a 1/1000 dilution, to each well. Each drug concentration was tested in triplicate wells. Plates were incubated at 37° C. for 24 hours.
After a 24-hour stimulation, supernatants were collected to quantify MCP-1 production. MCP-1 concentrations in the supernatants were determined by ELISA using recombinant human MCP-1 to obtain a standard curve. A 96-well MaxiSorb plate was coated with 100 μL of anti-human MCP-1 Capture Antibody diluted in Coating Buffer (0.1M sodium carbonate pH 9.5) overnight at 4° C. The dilution of Capture Antibody used was lot-specific and was determined empirically. Capture antibody was then aspirated and the plate washed 3 times with Wash Buffer (PBS, 0.05% TWEEN-20). Plates were blocked for 1 hour at room temperature with 200 μL/well of Assay Diluent (PBS, 10% FCS pH 7.0). After blocking, plates were washed 3 times with Wash Buffer. […] Sample supernatants and standards were assayed in triplicate and were incubated at room temperature for 2 hours after addition to the plate coated with Capture Antibody. The plates were washed 5 times and incubated with 100 μL of Working Detector (biotinylated anti-human MCP-1 detection antibody+avidin-HRP) for 1 hour at room temperature. Following this incubation, the plates were washed 7 times and 100 μL of Substrate Solution (tetramethylbenzidine, H2O2) was added to plates and incubated for 30 minutes at room temperature. […] Mean absorbance was determined from triplicate data readings and the mean background was subtracted. MCP-1 concentration values were obtained from the standard curve.

The next test concerns Smooth muscle cells. The experiment in a line: Proliferation of smooth muscle cells. The class given is cell-based. As to conditions: 72 hours, CYQUANT; read-out: IC50 proliferation of smooth muscle cells. The method, then: Smooth muscle cells at 70-90% confluency were trypsinized, replated at 600 cells/well in media in 96-well plates and allowed to attachment overnight. Paclitaxel was prepared in DMSO at a concentration of 10^−2 M and diluted 10-fold to give a range of stock concentrations (10^−8 M to 10^−2 M). […] Each drug concentration was tested in triplicate wells. Plates containing cells and paclitaxel were incubated at 37° C. for 72 hours.
To terminate the assay, the media was removed by gentle aspiration A 1/400 dilution of CYQUANT 400×GR dye indicator (Molecular Probes; Eugene, Oreg.) was added to 1× Cell Lysis buffer, and 200 μL of the mixture was added to the wells of the plate. Plates were incubated at room temperature, protected from light for 3-5 minutes.

The next test deals with human fibroblasts. Kind of test: Cell proliferation of fibroblasts. Format: cell-based. To be noted: Fibroblast, 72 hours, CYQUANT, read-out: IC50 cell proliferation of fibroblasts. The method, boiled down: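 Human fibroblasts plated at 600 cells/well, attached overnight, then exposed to drug in triplicate for 72 h at 37°C. Cell content read with CYQUANT GR dye in lysis buffer after 3-5 min at room temperature.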

The mark [7] stands for this setting: THP-1 cells stimulated with opsonized zymosan, 24 hours.

Read-outs that look alike come from different tables or passages of the source.

For `Sc1ncc2[nH]cnc2n1` [2-mercaptopurine], in the test with E. coli UB1005 C498, the Minimum inhibitory concentration entry is “N”.

With `O=c1[nH]cc(F)c(=O)[nH]1` [5-fluorouracil], the Minimum inhibitory concentration in [1] was 10^−5 Molar; in test [2], 10^−6 Molar; in the test on E. coli UB1005 C498 it was 10^−6 Molar; in the test on S. aureus ATCC25923 C622, 10^−7 Molar; with S. epidermidis C621, 10^−7 Molar; in the test with S. pyogenes C721, 10^−4 Molar.

As to `Sc1ncnc2nc[nH]c12` [6-mercaptopurine], in the test with E. coli UB1005 C498, the Minimum inhibitory concentration entry is recorded as “N”.

As to `CO[C@@H]1[C@H](O)C[C@@H](O[C@@H]2C[C@H](Oc3cc4cc5c(c(O)c4c(O)c3C)C(=O)[C@@H](O[C@H]3C[C@@H](O[C@H]4C[C@@H](O[C@H]6C[C@](C)(O)[C@@H](OC(C)=O)[C@H](C)O6)[C@H](O)[C@@H](C)O4)[C@H](O)[C@@H](C)O3)[C@H]([C@H](OC)C(=O)[C@@H](O)[C@@H](C)O)C5)O[C@H](C)[C@@H]2OC(C)=O)O[C@@H]1C` [chromomycin A3], the IC50 in test [3] was 394 nM; in [4], 148 nM; in test [5], 36 nM; in test [6], 37 nM; in the test with Smooth muscle cells, 12 nM.

As for `COc1cccc2c1C(=O)c1c(O)c3c(c(O)c1C2=O)C[C@@](O)(C(C)=O)C[C@@H]3O[C@H]1C[C@H](N)[C@H](O)[C@H](C)O1` [daunorubicin], the IC50 in test [3] worked out at 195 nM; in [4], 517 nM; in test [5] it was 421 nM; in test [6], 570 nM; in the test on Smooth muscle cells, 50 nM.

On to `O=C(CC1NCCCC1O)Cn1cnc2cc(Br)c(Cl)cc2c1=O` (stereo not shown) [halofuginone], for which the IC50 in the test with human fibroblasts was 10 to 100 nM; in test [4] (Homo sapiens, THP-1, 24 h) it was 919 nM; in [5] (Homo sapiens), 641 nM; in test [6] (Homo sapiens) it was 9 nM; in the test with Smooth muscle cells, 81 nM.

Turning to `O=C1c2c(O)ccc(O)c2C(=O)c2c(NCCNCCO)ccc(NCCNCCO)c21` [mitoxantrone, 9,10-anthracenedione, 1,4-dihydroxy-5,8-bis((2-((2-hydroxyethyl)amino)ethyl)amino)-], the IC50 in [6] (Homo sapiens) was found to be 62 nM; with Smooth muscle cells it was 1 nM. Further, the Minimum inhibitory concentration in the test on E. coli UB1005 C498 was 10^−5 Molar.

As to `CC[C@@]1(O)C(=O)OCc2c1cc1n(c2=O)Cc2cc3c(CN(C)C)c(O)ccc3nc2-1` [topotemay, Topotecan], the IC50 in test [4] (setting [7]) stood at 509 nM; in test [5], 257 nM; in test [6] it was 514 nM; with Smooth muscle cells it was 51 nM.

In the case of rapamycin, the IC50 was 51 nM in [3], 0.48 nM in test [4] (setting [7]), 4 nM in [5] and 0.05 nM in test [6].

Values taken from patent publication US20090226500A1, “SUTURES AND ANTI-SCARRING AGENTS” (Angiotech Pharmaceuticals, Inc, priority 2006, published 2009).
